The values below come from publication PMC12293048, “New Benzimidazole 3′-Deoxynucleosides: Synthesis and Antiherpes Virus Properties” (Biomolecules, 2025).

One may read the IC50 as the concentration that gives 50% inhibition. Higher therefore signals a need for much substance.

The structures appear in SMILES notation. pIC50: −log10 of the molar value. Values joined by “and” are separate entries in the source; they are usually repeats but may differ in a detail not shown here. Equal entries are not always repeated. Where two headings read alike, the source gives them in different places.

Data set [1] deals with HSV-1/L2. Put plainly: CPE inhibition assay, HSV-1 reference strain L2 in Vero E6 cells. The following applies: for IC95: Human alphaherpesvirus 1, Vero C1008, CPE inhibited almost completely. Type of data set: cell-based, herpes simplex virus 1. The protocol: (§1) Vero 6 cells for determining cytotoxicity and antiviral activity were cultured according to the method described in [29].
Vero E6 cells were then infected with the infection material at an MOI of 0.01 PFU/cell; incubation was performed at 37 °C in an atmosphere of 5% CO2. […] The duration of incubation was 48 h and 72 h for MOI 0.01 PFU/mL, respectively. […] The results of three independent experiments are shown in Table S1 (Supplementary Materials).

Data set [2] deals with HSV-1/L2/R^ACV. The data set is described as follows: microbe, parasite or virus in culture. Type of data set: cell-based, herpes simplex virus 1. The following applies: for pIC50: Human alphaherpesvirus 1, Vero C1008, read-out: IC50 HSV-1/L2/R^ACV, CPE inhibition by 50%, Vero E6, MOI 0.01, acyclovir-resistant TK-negative strain; for IC95: Human alphaherpesvirus 1, Vero C1008, read-out: IC95 HSV-1/L2/R^ACV, CPE inhibited almost completely, Vero E6, MOI 0.01, acyclovir-resistant strain. The method, then: as §1
In 96-well plastic plates with the generated cell monolayer, serial dilutions of the compounds were prepared at […] 1:2 with the maintenance medium (Eagle′s medium and medium 199, mixed in a ratio 1:1). Vero E6 cells were then infected with the infection material at an MOI of 0.01 PFU/cell; incubation was performed at 37 °C in an atmosphere of 5% CO2. Cytotoxicity was determined quantitatively by the trypan blue exclusion method and expressed as CD50: the concentration of the drug at which 50% of cells die after 72 h. […] The duration of incubation was 48 h and 72 h for MOI […], respectively. […] An antiviral activity was assessed by determining ID50 and ID95 (concentrations of compounds that inhibit the development of virus-induced CPE as compared with the control by 50% and almost completely). […] The results of three independent experiments are shown in Table S1 (Supplementary Materials).

For data set [3], the system named is Vero E6 cells. The data set is described as follows: Cytotoxicity, trypan blue exclusion. The data set is classed as cell-based. The following applies: for CD50: 50% cytotoxic concentration, Vero E6 cells, 72 h; for MTC (maximal tolerable concentration): highest concentration that does not cause death of Vero E6 cells.
The subject of data set [4] is HCMV. Particulars: cited from earlier work.
Data set [5] deals with HSV-1. The following applies: cited from earlier work.
Where [6] appears, read: Human alphaherpesvirus 1, Vero C1008, read-out: IC50 HSV-1/L2, CPE inhibition by 50%, Vero E6, MOI 0.01.
Setting [7] is: read-out: IC50 HSV-1/L2, CPE inhibition by 50%, Vero E6, MOI 0.01.

Compound `COc1c(F)cc2nc[nH]c2c1F` [Compound 5, 4,6-Difluoro-5-methoxybenzimidazole] showed an IC95 in data set [1] (Vero E6, MOI 0.01) of 2720 µM. The pIC50 in data set [1] (setting [6]) was 2.99. Moreover, the pIC50 in data set [2] was 2.87. For the same compound, in data set [3], the CD50 came to 2909.48 ± 123.18 µM and the “MTC (maximal tolerable concentration)” value turned out to be 1358.40 µM.
Take `OC[C@H]1O[C@@H](n2cnc3cc(Cl)c(Cl)cc32)[C@H](O)[C@@H]1O` [DRB, 5,6-dichloro-1-(β-D-ribofuranosyl)benzimidazole]: the pIC50 in data set [4] is 4.38; in data set [5], 4.52.
As for `OC[C@@H]1C[C@@H](O)[C@H](n2cnc3ccccc32)O1` [Compound 9, 1-(β-D-3′-Deoxyribofuranosyl)benzimidazole], the IC95 in data set [1] (Vero E6, MOI 0.01) worked out at 2510 µM; in data set [2], 5020 µM. Moreover, the values for the pIC50 in data set [1] (setting [6]), in data set [1] (setting [7]) and in data set [2] were 3.20, 3.20 and 2.90, respectively. In data set [3], the CD50 was > 5019.25 µM. The “MTC (maximal tolerable concentration)” value in data set [3] is 2505.13 µM.
For `Nc1nc2cc(F)c(F)cc2n1[C@@H]1O[C@H](CO)C[C@H]1O` [Compound 16, 2-Amino-5,6-difluoro-1-(β-D-3′-deoxyribofuranosyl)benzimidazole], the IC95 was > 1990 µM in data set [1] (Vero E6, MOI 0.01) and > 1990 µM in data set [2]. Moreover, the pIC50 in data set [1] (setting [6]), in data set [1] (setting [7]) and in data set [2] was 3.00 in each case. The CD50 in data set [3] worked out at 3315.58 ± 141.99 µM. In addition, the “MTC (maximal tolerable concentration)” value in data set [3] is 1991.35 µM.
With `NC(=O)c1ncn([C@@H]2O[C@H](CO)[C@@H](O)[C@H]2O)n1` [ribavirin, reference compound], in data set [1] (Vero E6, MOI 0.01), the IC95 was 2050 µM. Further, the pIC50 in data set [2] is 3.29. Besides, in data set [3], the “MTC (maximal tolerable concentration)” value was 4095.00 µM.
Consider `Nc1nc2c(ncn2COCCO)c(=O)[nH]1` [acyclovir, reference compound], for which the IC50 in data set [2] (Human alphaherpesvirus 1, Vero C1008, virus variant profoundly resistant to acyclovir) is > 100 µg/mL and > 444 µM.
With `OC[C@@H]1C[C@@H](O)[C@H](n2cnc3c(F)cc(F)cc32)O1` [Compound 11a, 4,6-difluoro-1-(β-D-3′-deoxyribofuranosyl)benzimidazole], the IC95 in data set [1] (Vero E6, MOI 0.01) was 1000 µM; in data set [2], 2010 µM. Further, the results for the pIC50 in data set [1] (setting [6]), in data set [1] (setting [7]) and in data set [2] were 3.60, 3.60 and > 2.70, respectively. The CD50 in data set [3] is > 2007.37 µM. For the same compound, in data set [3], the “MTC (maximal tolerable concentration)” value was 1003.68 µM.
Take `c1ccc2[nH]cnc2c1` [Compound 1, Benzimidazole]: in data set [1] (Vero E6, MOI 0.01), the IC95 worked out at 4240 µM. In addition, the pIC50 in data set [1] (setting [6]), in data set [1] (setting [7]) and in data set [2] was 2.98 throughout. In data set [3], this compound came in with a CD50 of 6313.85 ± 167.47 µM. Moreover, in data set [3], the “MTC (maximal tolerable concentration)” value turned out to be 4235.49 µM.
For the compound `Fc1cc(F)c2[nH]cnc2c1` [Compound 3, 4,6-Difluorobenzimidazole], the IC95 in data set [1] (Vero E6, MOI 0.01) was 1620 µM. The pIC50 in data set [1] (setting [6]), in data set [1] (setting [7]) and in data set [2] was 3.09 throughout. The CD50 in data set [3] came to 2489.32 ± 92.46 µM. For the same compound, in data set [3], the “MTC (maximal tolerable concentration)” value is 811.53 µM.
Turning to `Nc1nc2cc(F)c(F)cc2[nH]1` [Compound 8, 2-Amino-5,6-difluorobenzimidazole], in data set [1] (Vero E6, MOI 0.01), the IC95 worked out at 739 µM. The pIC50 in data set [1] (setting [6]), in data set [1] (setting [7]) and in data set [2] was 3.43 throughout. The compound further came in with a CD50 in data set [3] of 1659.39 ± 60.16 µM. The “MTC (maximal tolerable concentration)” value in data set [3] worked out at 739.43 µM.
As for `Fc1cc2nc[nH]c2c(F)c1F` [Compound 4, 4,5,6-Trifluorobenzimidazole], the IC95 in data set [1] (Vero E6, MOI 0.01) is 1450 µM. Besides, the pIC50 in data set [1] (setting [6]), in data set [1] (setting [7]) and in data set [2] was 3.44 in each case. Also, the CD50 in data set [3] came out at 2179.98 ± 27.03 µM. Also, in data set [3], the “MTC (maximal tolerable concentration)” value came to 1453.32 µM.
Turning to `COc1c(F)cc2c(ncn2[C@@H]2O[C@H](CO)C[C@H]2O)c1F` [Compound 13, 4,6-Difluoro-5-metoxy-1-(β-D-3′-deoxyribofuranosyl)benzimidazole], in data set [1] (Vero E6, MOI 0.01), the IC95 came out at 3330 µM. In addition, the pIC50 in data set [1] (setting [6]) and in data set [2] was 2.52 throughout. The “MTC (maximal tolerable concentration)” value in data set [3] worked out at 1665.22 µM.
Turning to `Nc1nc2ccccc2[nH]1` [Compound 6, 2-aminobenzimidazole], the IC95 in data set [1] (Vero E6, MOI 0.01) worked out at 939 µM. Besides, the pIC50 is 3.33 in data set [1] (setting [6]), 3.33 in data set [1] (setting [7]) and 3.15 in data set [2]. The compound further displayed a CD50 in data set [3] of 1422.89 ± 18.04 µM. Besides, the “MTC (maximal tolerable concentration)” value in data set [3] was 939.43 µM.
As for `OC[C@@H]1C[C@@H](O)[C@H](n2cnc3c(F)c(F)c(F)cc32)O1` [Compound 12a, 4,5,6-trifluoro-1-(β-D-3′-deoxyribofuranosyl)benzimidazole], the IC95 in data set [1] (Vero E6, MOI 0.01) was 1000 µM; in data set [2], 2000 µM. For the same compound, the pIC50 in data set [1] (setting [6]) is 3.60; in data set [1] (setting [7]) it was 3.60; in data set [2] it was 3.31. Moreover, the CD50 in data set [3] is ≥ 3999.31 µM. Besides, in data set [3], the “MTC (maximal tolerable concentration)” value is given as 1999.65 µM.
Regarding `COc1cc2nc(N)[nH]c2cc1F` [Compound 7, 2-amino-5-fluoro-6-methoxybenzimidazole], in data set [1] (Vero E6, MOI 0.01), the IC95 was 690 µM. Also, the pIC50 in data set [1] (setting [6]), in data set [1] (setting [7]) and in data set [2] was 3.76 in each case. The CD50 in data set [3] turned out to be 2165.79 ± 33.74 µM. In addition, in data set [3], the “MTC (maximal tolerable concentration)” value amounted to 1380.68 µM.
As to `OC[C@@H]1C[C@@H](O)[C@H](n2cnc3cc(F)c(F)cc32)O1` [Compound 10, 5,6-Difluoro-1-(β-D-3′-deoxyribofuranosyl)benzimidazole], the IC95 was 985 µM in data set [1] (Vero E6, MOI 0.01) and ≥ 1970 µM in data set [2]. For the same compound, the values for the pIC50 in data set [1] (setting [6]), in data set [1] (setting [7]) and in data set [2] were 3.61, 3.61 and 2.83, respectively. This compound showed a CD50 in data set [3] of 2901.81 ± 60.28 µM. Also, in data set [3], the “MTC (maximal tolerable concentration)” value stood at 1970.86 µM.
With `Fc1cc2nc[nH]c2cc1F` [Compound 2, 5,6-Difluorobenzimidazole], the IC95 in data set [1] (Vero E6, MOI 0.01) turned out to be 1620 µM. The pIC50 is 3.69 in data set [1] (setting [6]), 3.69 in data set [1] (setting [7]) and 3.39 in data set [2]. In data set [3], this compound gave a CD50 of 2433.81 ± 37.72 µM. Further, the “MTC (maximal tolerable concentration)” value in data set [3] came to 1623.06 µM.
